ChEMBL document CHEMBL1201862, “PubChem BioAssay data set” (2004)
Active and inactive are the calls of the source. Cut-off read from the data, not from the text of the source, for most assays here: actives have a measured EC50 and inactives only a lower limit.

Tests used:
[1] = target: T1, Rac GTPase-activating protein 1 (Homo sapiens, UniProt Q9H0H5); test: MgcRacGAP GTPase-activating activity inhibitors, confirmation, biochemical, ADP Hunter fluorescence, primary and confirmatory (AID 624330); assay type: functional
T1 sequence (Q9H0H5 whole entry): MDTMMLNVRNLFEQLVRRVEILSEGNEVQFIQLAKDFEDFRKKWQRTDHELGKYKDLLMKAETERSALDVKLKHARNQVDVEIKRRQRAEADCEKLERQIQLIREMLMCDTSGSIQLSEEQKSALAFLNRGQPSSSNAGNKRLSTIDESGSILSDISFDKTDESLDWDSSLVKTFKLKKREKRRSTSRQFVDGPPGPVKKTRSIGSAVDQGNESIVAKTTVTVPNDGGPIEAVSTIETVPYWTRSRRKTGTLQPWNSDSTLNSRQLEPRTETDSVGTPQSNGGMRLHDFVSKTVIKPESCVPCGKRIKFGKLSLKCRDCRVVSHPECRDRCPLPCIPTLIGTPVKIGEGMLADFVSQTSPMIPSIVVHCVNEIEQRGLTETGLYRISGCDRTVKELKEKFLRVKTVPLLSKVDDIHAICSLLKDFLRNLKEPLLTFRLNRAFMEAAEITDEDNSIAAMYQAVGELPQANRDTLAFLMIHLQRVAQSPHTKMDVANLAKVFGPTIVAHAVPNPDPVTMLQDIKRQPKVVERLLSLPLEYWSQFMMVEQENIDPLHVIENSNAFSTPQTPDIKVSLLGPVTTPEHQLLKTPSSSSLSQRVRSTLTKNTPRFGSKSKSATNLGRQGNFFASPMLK

[2] = test system: INS1; test: beta cell apoptosis inhibitors, cytokine rescue, dose response, luminescence, retest (AID 449756); assay type: functional, cell-based; details: Rattus norvegicus;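 note: cell death triggered by IL-1 beta plus TNF-alpha plus IFN-gamma mixture; protective hits raise ATP signal compared with cytokine alone wells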
[3] = Shn3 3'UTR reporter inhibitors, dose response, cell-based, Clone20 osteoblasts, firefly luciferase, cherry-picked (AID 624132); assay type: functional;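 note: firefly luciferase luminescence from reporter carrying the Shn3 3'UTR in osteoblasts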
[4] = HepG2 cell cytotoxicity, dose response, cytotoxicity control for Shn3 inhibitor project, CellTiter-Glo, cherry-picked (AID 624134); assay type: functional, cell-based
[5] = control 3'UTR Renilla luciferase suppression, dose response, counter-screen for Shn3 inhibitor project, cell-based, Clone20-Shn3RL, cherry-picked (AID 624133); assay type: functional
[6] = Luminescence Cell-Based Dose Confirmation HTS to Identify Activators of 5'UTR Stem-Loop Driven Alpha-Synuclein mRNA Translation in H4 Neuroglioblastoma Cells. [Related pubchem assays: 1829 (Project Summary), 1814 (Primary HTS)]; assay type: functional
[7] = Luminescence Cell-Based Dose Response HTS to Identify Activators of Luciferase Translation or Activity in H4 […] Cells. [Related pubchem assays: 1829 (Project Summary), 1814 (Primary HTS)]; assay type: functional
[8] = test system: H4; test: Luminescence Cell-Based Dose Response HTS to Identify Activators of 5'UTR Stem-Loop Driven Prion Protein mRNA Translation in H4 Neuroglioblastoma Cells. [Related pubchem assays: 1829 (Project Summary), 1814 (Primary HTS)]; assay type: functional; details: Homo sapiens
[9] = target: Large T antigen (Simian virus 40, UniProt P03070); assay type: functional, Betapolyomavirus macacae;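 note: Confirmatory-stage PubChem screen for compounds that inhibit SV40 T antigen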
[10] = NIH-3T3 fibroblast cytotoxicity, dose response, cytotoxicity control, cell-based, fluorescence, Alamar Blue, secondary assay (AID 2327); assay type: functional;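 note: NIH-3T3 mouse fibroblasts cultured with fluconazole at 8 µg/mL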
[11] = C. albicans growth with fluconazole, confirmation, fluorescence, retest (AID 2467); assay type: functional, cell-based
[12] = inhibitors of firefly luciferase expression or activity, dose response, H4 neuroglioma cells, luminescence (AID 1990); assay type: functional, cell-based
[13] = Luminescence Cell-Based Dose Response HTS to Identify Inhibitors of 5'UTR Stem-Loop Driven Prion Protein mRNA Translation in H4 Neuroglioblastoma Cells. [Related pubchem assays: 1827 (Project Summary), 1813 (Primary HTS)]; assay type: functional
[14] = inhibitors of SNCA 5'UTR-driven reporter translation, confirmation, H4 neuroglioma cells, luminescence (AID 1988); assay type: functional, cell-based
[15] = inhibitors of intracellular T. cruzi replication, confirmation, NIH3T3 host cells, beta-gal luminescence (AID 2044); assay type: functional, cell-based;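 note: intracellular parasites grown in NIH/3T3 mouse fibroblasts as host cells; luminescent beta-galactosidase reporter signal from transgenic T. cruzi replicating inside host cells; inhibitors lower the luminescence signal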
[16] = cytotoxicity toward NIH3T3 fibroblasts, dose response, counter-screen, cell-based, ATP luminescence, mouse fibroblasts (AID 2010); assay type: functional;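 note: cells exposed to compound for about 90 hours before reading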
[17] = target: T2, Corticotropin-releasing factor receptor 2/Corticotropin-releasing factor-binding protein (Homo sapiens, UniProt P24387+Q13324); test: activators of CRF receptor 2 with binding protein – uHTS hits, confirmation (AID 602473); assay type: functional; details: read-out: EC50_Mean
T2 sequence (Q13324 whole entry): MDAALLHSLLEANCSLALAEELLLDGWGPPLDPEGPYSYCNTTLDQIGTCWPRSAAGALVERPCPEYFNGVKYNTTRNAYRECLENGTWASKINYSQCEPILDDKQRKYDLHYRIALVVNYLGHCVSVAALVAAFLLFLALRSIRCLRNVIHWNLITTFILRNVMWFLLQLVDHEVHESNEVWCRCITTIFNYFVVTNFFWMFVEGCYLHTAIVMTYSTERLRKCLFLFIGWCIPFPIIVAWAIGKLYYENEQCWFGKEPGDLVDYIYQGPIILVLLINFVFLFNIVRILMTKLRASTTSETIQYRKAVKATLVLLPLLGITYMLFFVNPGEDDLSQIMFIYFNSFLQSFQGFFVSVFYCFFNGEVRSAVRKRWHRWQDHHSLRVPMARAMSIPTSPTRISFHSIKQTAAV
T2 sequence (P24387 whole entry): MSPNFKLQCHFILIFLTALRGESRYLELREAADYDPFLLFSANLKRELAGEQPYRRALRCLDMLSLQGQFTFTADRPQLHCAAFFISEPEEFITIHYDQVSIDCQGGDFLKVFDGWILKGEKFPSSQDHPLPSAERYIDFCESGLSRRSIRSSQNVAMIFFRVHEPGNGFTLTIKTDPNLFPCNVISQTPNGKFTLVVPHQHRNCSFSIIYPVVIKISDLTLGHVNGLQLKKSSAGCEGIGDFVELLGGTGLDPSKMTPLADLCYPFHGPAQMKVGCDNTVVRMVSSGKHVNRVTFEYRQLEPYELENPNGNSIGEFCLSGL

Large T antigen, sequence (P03070 whole entry): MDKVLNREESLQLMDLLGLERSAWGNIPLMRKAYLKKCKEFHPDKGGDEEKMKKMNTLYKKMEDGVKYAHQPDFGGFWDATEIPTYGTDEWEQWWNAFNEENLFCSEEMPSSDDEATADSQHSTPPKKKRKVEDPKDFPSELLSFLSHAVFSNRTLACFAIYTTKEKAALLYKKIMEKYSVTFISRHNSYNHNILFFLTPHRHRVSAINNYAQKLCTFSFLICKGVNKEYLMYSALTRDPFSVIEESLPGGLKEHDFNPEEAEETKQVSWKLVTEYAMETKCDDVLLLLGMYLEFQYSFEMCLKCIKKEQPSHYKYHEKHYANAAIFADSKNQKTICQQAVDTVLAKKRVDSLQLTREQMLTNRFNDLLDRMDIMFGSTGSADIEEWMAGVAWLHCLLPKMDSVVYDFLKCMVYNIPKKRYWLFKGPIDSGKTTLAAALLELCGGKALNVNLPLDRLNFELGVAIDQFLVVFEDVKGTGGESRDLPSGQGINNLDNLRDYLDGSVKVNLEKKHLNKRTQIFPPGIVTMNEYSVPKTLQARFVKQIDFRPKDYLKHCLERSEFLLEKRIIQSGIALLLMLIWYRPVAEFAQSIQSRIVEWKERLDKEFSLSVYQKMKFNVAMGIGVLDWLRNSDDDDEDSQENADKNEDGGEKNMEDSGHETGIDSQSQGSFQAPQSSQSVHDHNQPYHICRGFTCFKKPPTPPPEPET

O=c1c2ccccc2nc(/C=C/c2ccc(O)cc2)n1-c1ccccc1O
IC50 [1]: 62.5 µM (active)

Cc1ccc(NC(=O)Cc2nn(C)c(=O)c3ccccc23)cc1F
AC50 [2]: 3.98 µM (active)
AC50 [3]: 0.73 µM (active)
AC50 [4]: 3.46 µM (active)
AC50 [5]: 2.3 µM (active)

Oc1nc(COc2ccc(Cl)cc2Cl)nc2ccccc12
EC50 [6]: 0.125 µM (active)
EC50 [7]: 0.107 µM (active)
EC50 [8]: 0.148 µM (active)

Cc1cc(-c2cc(C)c(N)c(C)c2)cc(C)c1N
IC50 [1]: 10.8 µM (active)

CC(C)C(OC(=O)c1ccccc1)c1nccc2ccccc12 (centres undefined)
EC50 [6]: 21.5 µM (active)
EC50 [7]: 17.8 µM (active)
EC50 [8]: 39.5 µM (active)

CCc1ccc(OC(=O)Nc2ccccc2)cc1
EC50 [6]: 6.4 µM (active)
EC50 [7]: > 120 µM (not active)
EC50 [8]: 7.7 µM (active)

CCN(CC)S(=O)(=O)c1cccc(NC(=O)CNC2CCCCCC2)c1
IC50 [1]: 185 µM (active)

Nc1ccc(N=Nc2ccc(N)cc2)cc1
IC50 [1]: 22 µM (active)

O=C(Nc1ccc(-c2cn3c(n2)SCC3)cc1)c1ccc2ccccc2n1
EC50 [6]: 15.5 µM (active)
EC50 [7]: 24 µM (active)
EC50 [8]: 16.8 µM (active)

CN(C)/C=C(\C#N)C(=O)Nc1ccc(O)cc1F
IC50 [9]: 17.6 µM (active)

Cc1ccc(-c2c[n+](-c3ccc(OC(F)F)cc3)c3n2CCCCC3)cc1
EC50 [10]: > 150 µM (inconclusive)
EC50 [11]: > 38 µM (not active)
AC50 [2]: 1.52 µM (active)

CCS(=O)(=O)C1=NN2C(=N)/C(=C\c3ccc(OC(=O)c4ccco4)c(Br)c3)C(=O)N=C2S1
IC50 [9]: > 100 µM (active)

Cc1cc(NC(=O)c2cccnc2)ccc1NC(=O)c1cc2ccccc2o1
EC50 [12]: 18.6 µM (active)
EC50 [13]: 17.7 µM (active)
EC50 [14]: 20.6 µM (active)

Cc1nnsc1-c1c(C(=O)Oc2ccccc2)c(C)nn1-c1ccccc1
EC50 [12]: 18.8 µM (active)
EC50 [13]: > 120 µM (not active)
EC50 [14]: 19.8 µM (active)

O=C(Nc1ncc(S(=O)(=O)c2ccc([N+](=O)[O-])cc2)s1)c1cccc2ccccc12
EC50 [15]: 0.221 µM (active)
EC50 [16]: > 60 µM (not active)
EC50 [17]: 4.23 µM (active)

CC(C)OC(=O)Cn1nnc2c(cnn2-c2ccccc2)c1=O
EC50 [6]: 13.4 µM (active)
EC50 [7]: 13.1 µM (active)
EC50 [8]: 20.7 µM (active)

OCC1CCCN(C(=S)Nc2ccc(Nc3ccccc3)cc2)C1 (centres undefined)
IC50 [9]: 8.16 µM (active)
IC50 [1]: 41.8 µM (active)

Cc1ccc(Nc2nc(=O)c3cccnc3s2)cc1
EC50 [7]: 2.71 µM (active)
EC50 [8]: > 120 µM (not active)

CC(=O)OCC1OC(n2cc(F)c(=O)[nH]c2=O)C(OC(C)=O)C1OC(C)=O (centres undefined)
EC50 [6]: > 120 µM (not active)
EC50 [7]: 117 µM (active)
EC50 [8]: > 120 µM (not active)

Cc1nn(-c2ccccn2)c2c1-c1nc(N)ncc1CC2
EC50 [6]: 12.3 µM (active)
EC50 [7]: 1.98 µM (active)

CCOC(=O)c1ccc(NCn2c(=O)oc3ccccc32)cc1
EC50 [17]: > 53 µM (inactive)

c1ccc(-c2cn(CC3CCCCC3)nn2)cc1
EC50 [6]: 0.146 µM (active)
EC50 [7]: 0.236 µM (active)
EC50 [8]: > 120 µM (inconclusive)

O=C(c1cc(-c2ccc3c(c2)OCO3)on1)N1CCCCC1
EC50 [13]: 10.3 µM (active)
EC50 [14]: 7.22 µM (inconclusive)

Nc1ccc(Nc2ccccc2)c(Cl)c1
IC50 [1]: 17.3 µM (active)

Cc1ccc(-n2nnnc2-c2cnc(-c3cccnc3)nc2C(F)(F)F)cc1
AC50 [3]: 5.89 µM (active)
AC50 [4]: 57.4 µM (active)
AC50 [5]: 23 µM (active)

COc1ccc(COc2ccccc2C(=O)NCc2ccccc2)cc1F
AC50 [3]: 4.76 µM (active)
AC50 [4]: 52.4 µM (active)
AC50 [5]: 10.1 µM (active)

CN1CN(C)c2cccc3cccc1c23
IC50 [9]: 73.9 µM (active)

Cn1c2ccccc2c2cc(C(=O)N3CCN(CCO)CC3)sc21
EC50 [6]: > 120 µM (not active)
EC50 [7]: 15.3 µM (active)
EC50 [8]: 33.8 µM (active)

CCCCCn1c(=O)c(C(=O)NC(C)c2ccccc2)c(O)c2ccccc21 (centres undefined)
AC50 [2]: 5.84 µM (active)
AC50 [3]: 11.7 µM (active)
AC50 [4]: > 70 µM (inactive)
AC50 [5]: 6.26 µM (active)

O=C(CN1CCN(c2ccc(O)cc2)CC1)NC(=O)NCc1ccco1
IC50 [1]: 52.6 µM (active)

C[C@H](NC(=O)c1[nH]cnc1C(=O)NCc1ccc(CNC(=O)OC(C)(C)C)cc1)c1ccccc1
AC50 [3]: 11.7 µM (active)
AC50 [4]: > 70 µM (inactive)
AC50 [5]: 14.9 µM (active)

COc1ccccc1CNc1nc(NCc2ccccc2OC)c2sccc2n1
AC50 [3]: 6.33 µM (active)
AC50 [4]: 22.1 µM (active)
AC50 [5]: 9.79 µM (active)

C=C1C(=O)C23C(O)C1CCC2C12COC3(O)C(O)C1C(C)(C)CCC2O (centres undefined)
AC50 [3]: 3.3 µM (active)
AC50 [5]: 8.14 µM (active)

CC(C)CC(NC(=O)c1ccccc1)C(=O)N/N=C/c1ccco1 (centres undefined)
EC50 [17]: 4.81 µM (active)

COc1cccc(/C=N/NC(=O)c2[nH]nc3c2CCc2ccccc2-3)c1
EC50 [6]: > 120 µM (not active)
EC50 [7]: > 60 µM (not active)
EC50 [8]: > 120 µM (not active)

O=C(NCCNCC(O)COc1ccc(O)cc1)N1CCOCC1 (centres undefined)
IC50 [1]: 118 µM (active)

Clc1ccccc1CNCc1ccc2c(c1)OCO2
IC50 [1]: 257 µM (active)

COc1ccc(-c2cc3ccc(OCc4nn[nH]n4)cc3oc2=O)cc1
EC50 [12]: 13.9 µM (active)
EC50 [13]: 14.6 µM (active)
EC50 [14]: 13.3 µM (active)

O=c1[nH]c(=O)c2nnc(N/N=C\c3ccc(O)cc3)nc2[nH]1
IC50 [9]: 16.8 µM (active)

c1ccc(CNc2ncnc3c2ncn3C2CCCCO2)cc1 (centres undefined)
EC50 [6]: 5.99 µM (active)
EC50 [7]: 4.67 µM (active)
EC50 [8]: > 120 µM (not active)
